Experimental data reported in paper PMC12790360, “Characterization of Non‐Specific Electrostatic Interactions of Cationic Peptides with DNA Origami and Their Functional Consequences” (Small Methods, 2025).
Ends that are not written are not given here. Peptide text beside a SMILES is read from it.

These molecules were tested on ssDNA (assay: Centrifugation-based pull-down (solubility) assay). Details: not given.
Assay type: physicochemical
Description: Next, to quantify the propensity of these peptides to induce the aggregation, we developed a centrifugation‐based pull‐down assay (Figure 1e). In this assay, the cationic peptide pulls down the interacting BCN‐free ssDNA, forming large macromolecular aggregates that are sedimented as a pellet. The amount of ssDNA remaining in the soluble supernatant is then determined by measuring its absorbance at 260 nm.^[ [40], [41] ^] […] The soluble fraction for both peptides increased as the NaCl concentration was raised, confirming that the aggregation is driven by electrostatic interactions. […] To determine the soluble fraction of ssDNA after mixing with peptides, the mixtures were prepared as described above and then centrifuged at 16 000 × g for 5 min at room temperature. The supernatants were carefully collected, and the ssDNA concentration was measured by absorbance at 260 nm (OD260) on a NanoDrop spectrophotometer. The soluble fraction was calculated as OD260,supernatant/OD260,initial, where OD260,initial corresponds to the absorbance of the ssDNA reference solution (0.07 mM in 1× TE buffer without peptide or salt).

| Molecule | Soluble ssDNA fraction in supernatant after centrifugation with peptide |
| --- | --- |
| EQLESIINFEKLTEWT [AP2] | highly soluble across all conditions |
| ISQAVHAAHAEINEAGR [AP3] | weaker aggregation tendencies compared with CP1 and CP2 |

Same assay, conditions: BCN-free ssDNA 0.07 mM in 1x TE, tenfold molar excess peptide, varying NaCl, 16 000 x g 5 min room temperature, OD260 supernatant/initial, n = 3

| Molecule | Soluble ssDNA fraction in supernatant after centrifugation with peptide |
| --- | --- |
| CC[C@H](C)[C@H](NC(=O)[C@H](CCCCN)NC(=O)[C@H](CCC(N)=O)NC(=O)[C@H](CC(N)=O)NC(=O)[C@H](CS)NC(=O)[C@H](C)NC(=O)[C@H](C)NC(=O)CNC(=O)[C@H](CCCNC(=N)N)NC(=O)[C@H](Cc1c[nH]c2ccccc12)NC(=O)CNC(=O)[C@@H]1CCCN1C(=O)[C@H](CCCNC(=N)N)NC(=O)[C@@H](N)CS)C(=O)N[C@@H](CC(C)C)C(=O)O [CP4] (H-CRPGWRGAACNQKIL-OH) | highly soluble across all conditions |
| CC[C@H](C)[C@H](NC(=O)[C@@H](NC(=O)[C@H](CC(C)C)NC(=O)[C@H](CO)NC(=O)[C@H](Cc1c[nH]cn1)NC(=O)[C@@H](NC(=O)[C@@H](NC(=O)CNC(=O)[C@H](Cc1c[nH]cn1)NC(=O)[C@H](CCCNC(=N)N)NC(=O)[C@H](CCCNC(=N)N)NC(=O)[C@H](CCSC)NC(=O)[C@H](CCC(=O)O)NC(=O)[C@H](Cc1ccc(O)cc1)NC(=O)[C@H](CCCCN)NC(=O)[C@H](CC(N)=O)NC(=O)CNC(=O)[C@@H]1CCCN1C(=O)[C@H](CS)NC(=O)[C@H](CC(C)C)NC(=O)[C@H](CCC(=O)O)NC(=O)[C@@H](NC(=O)CNC(=O)[C@H](CCC(=O)O)NC(=O)[C@@H](N)CCCNC(=N)N)C(C)C)[C@@H](C)O)[C@@H](C)O)C(C)C)C(=O)N[C@@H](Cc1c[nH]cn1)C(=O)N[C@@H](CC(=O)O)C(=O)O [NP1] | weaker aggregation tendencies compared with CP1 and CP2 |
| GGGSEEEYRSRKYSSWYVALKR [CP2] | salt‐dependent solubility |
| KLTWQELYQLKYKGI [CP6] | weaker aggregation tendencies compared with CP1 and CP2 |
| PKKKR [CP5, brain-derived neurotrophic factor (BDNF) mimic peptide, cyclic, cationic, net charge +3] | weaker aggregation tendencies compared with CP1 and CP2 |
| RGIDKRHWNSQ [CP3] | weaker aggregation tendencies compared with CP1 and CP2 |
| SSSHPIFHRGEFSV [NP5] | weaker aggregation tendencies compared with CP1 and CP2 |
| YRSRKYSSWYVALKR [CP1] | salt‐dependent solubility |
